From PubChem BioAssay (NCI) come the findings set out here.

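Five concentrations, 48 hours, 96-well plates. The concentration for full growth arrest is given as TGI.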 A value given as a limit tells only on which side of the number the result lay.

What all share (test): NCI tumour cell line growth inhibition, 48 h
For assay [1], the system named is DMS 114 small cell lung.
Assay [2] concerns KM20L2 colon.
For assay [3], the system named is DLD-1 colon.
In assay [4] the test system is XF 498 CNS.
For assay [5], the system named is M19-MEL melanoma.
In assay [6] the test system is SNB-78 CNS.
Assay [7] deals with DMS 273 small cell lung.
Assay [8] has as its system LXFL 529 NSCLC.
Assay [9] has as its system HOP-18 NSCLC.
Assay [10] has as its system RXF-631 renal.
The subject of assay [11] is P388 leukemia.
The test system of assay [12] is P388/ADR leukemia.
For assay [13], the system named is SN12K1 renal.

As for `C/C(=N/N)c1sc(-c2nc(C)c(/C(C)=N\N)s2)nc1C`, the TGI is over 63.8 µM in [1]; over 100 µM in assay [2]; over 100 µM in [3]; over 100 µM in assay [4]; over 100 µM in assay [5]; over 100 µM in assay [6]. The TGI is over 58.8 µM in assay [7], over 100 µM in assay [8] and over 100 µM in assay [9].
`C/C=C1/C(=Cc2[nH]c(C=c3[nH]/c(=C/C4=NC(=O)C(CC)=C4C)c(C)c3CCC(=O)O)c(CCC(=O)O)c2C)NC(=O)C1C` (stereo not drawn): the TGI is over 50 µM in assay [1]; over 50 µM in [2]; over 50 µM in assay [3]; 17.5 µM in assay [4]; 41.6 µM in assay [5]; over 50 µM in assay [6]. Also, the TGI is 37.1 µM in assay [7], over 50 µM in assay [10], over 50 µM in assay [8] and over 50 µM in assay [9].
Consider `CCOC(OC1=C(C#N)CCCC1)C(CC)[Se]c1ccccc1[N+](=O)[O-]` (stereo not drawn), for which the TGI in assay [1] is 30.1 µM; in assay [2], 31.4 µM; in assay [3], 35.6 µM; in assay [4], 61.5 µM; in assay [5], 37.2 µM; in assay [6] it was over 100 µM. The values for the TGI in assay [7], in assay [8] and in [9] were 36.2 µM, 89.2 µM and 74.1 µM, respectively.
Consider `COC1(C)CNCC(C)(C)NC(=O)C(C)(OC)CNCC(C)(C)NC1=O` (stereo not drawn), for which the TGI in assay [1], in [2], in assay [3], in [5], in assay [6] and in assay [7] was over 100 µM throughout. The TGI in [10], in [8] and in assay [9] was over 100 µM throughout.
For `CCCCCCCCCCCCCCCCCCOCC(O)CO` (stereo not drawn), the TGI in assay [1] was over 25 µM; in assay [2], over 25 µM; in assay [3] it was over 25 µM; in assay [4] it was over 25 µM; in assay [5] it was 24.6 µM; in assay [11], over 14.1 µM. Besides, the TGI in assay [6] was over 25 µM; in [7], over 7.73 µM; in assay [12], over 25 µM; in [9] it was over 2.5 µM; in assay [13], over 25 µM.
Regarding `CC(C)=CCOc1ccc(-c2coc3cc4c(c(O)c3c2=O)C=CC(C)(C)O4)cc1`, the TGI in assay [1], in assay [2], in assay [3], in assay [4], in [5] and in [6] was over 100 µM each time. For the same compound, in [8], the TGI was over 100 µM.
As for `O=C1C2C3C=C4c5ccccc5N(c5ccccc5)C4([C@@H]2C(=O)N1c1ccc(F)cc1)[C@H]1C(=O)N(c2ccc(F)cc2)C(=O)[C@@H]31` (stereo partly drawn), the TGI in assay [1], in [3], in [4], in assay [5], in assay [6] and in assay [9] was over 100 µM each time.
For `O=C1c2ccccc2C(=O)c2sc(Nc3ccc([N+](=O)[O-])cc3)nc21`, the TGI in [1] stood at 6.32 µM; in assay [2], 45.6 µM; in assay [3], 11.5 µM; in assay [4], 4.18 µM; in [5], 3 µM; in assay [6], 42 µM. Moreover, the TGI in assay [7] is 14.6 µM; in assay [10], over 55.1 µM; in [8], 3.06 µM; in assay [9] it was 9.03 µM.
On to `CC(=O)OCC1OC(n2c(O)c(N=NC(N)=S)c3ccc([N+](=O)[O-])cc32)C(OC(C)=O)C1OC(C)=O` (stereo not drawn), for which the TGI in assay [1] is 61.9 µM; in [2] it was over 100 µM; in assay [3], over 100 µM; in assay [4], 94.7 µM; in [5] it was 38.3 µM; in [6] it was over 100 µM. For the same compound, the figures for the TGI in assay [7], in assay [8] and in assay [9] were 57.5 µM, over 100 µM and over 100 µM, respectively.
Turning to `CC(O)C1OC(n2ccc(=O)[nH]c2=O)CC1n1cncn1` (stereo not drawn), the TGI in [1], in assay [2], in assay [3], in assay [4], in assay [5] and in [7] was over 100 µM each time. Also, in assay [8], the TGI was over 100 µM.
With `CCOC(=O)c1ccn2c(c1)c(C#N)c1nc3ccccc3nc12`, the TGI in [1] is over 100 µM; in assay [2], over 100 µM; in assay [3], over 100 µM; in assay [4], 93.3 µM; in [5], over 100 µM; in assay [6], 57.6 µM. In addition, the TGI in [7] and in assay [8] was over 100 µM throughout.
As to `CC(=O)OCC1=CC2CCC3C(C)(CCC[C@]3(C)COC(C)=O)C23CC[C@H]1C3` (stereo partly drawn), the TGI in assay [1] is 44.3 µM; in assay [2], over 100 µM; in [3] it was over 100 µM; in assay [4], 81.9 µM; in [5], over 100 µM; in [7], over 100 µM. For the same compound, the TGI in assay [10], in assay [8] and in [9] was over 100 µM in each case.
Turning to `COc1cc2c(cc1OC)[C@H]1C(COC(=O)Nc3ccccc3)CN1CC2` (stereo partly drawn), the TGI in assay [3], in assay [5], in [7], in assay [8] and in [9] was over 100 µM each time.
Take `O=C(NCc1ccccc1)C1C(=O)C(=O)N(Cc2ccccc2)C1=O` (stereo not drawn): the TGI in [2], in assay [3], in assay [5], in assay [6], in [7] and in assay [10] was over 100 µM in each case. The TGI in assay [8] and in assay [9] was over 100 µM in each case.
With `COc1cc2cnc3c4cc(OC)c(OC(C)C)cc4ccc3c2cc1OC`, the TGI in assay [1], in [2], in [3], in assay [5], in [6] and in [7] was over 100 µM throughout. Moreover, the TGI in assay [10], in assay [8] and in assay [9] was over 100 µM in each case.
Regarding `COC(=O)/C(=N\N)C(C(=O)C(=O)Nc1nc(=S)[nH][nH]1)c1nc2ccc([N+](=O)[O-])cc2[nH]c1=O` (stereo not drawn), the TGI in assay [1], in [2], in assay [3], in [5], in [6] and in assay [7] was over 100 µM in each case. Besides, the TGI in assay [10], in assay [8] and in assay [9] was over 100 µM in each case.
For `CCC(=O)CCC1=Nc2nnc(CCCCc3nnc4n3C(=O)C(CCC(=O)CC)=N4)n2C1=O`, the TGI in [1], in assay [2], in assay [3], in assay [4], in assay [5] and in assay [7] was over 100 µM throughout. In assay [8], this compound returned a TGI of over 100 µM.
Turning to `C[Si](C)(C)/C=C/CN1C(=O)CCC1=O`, the TGI in [1], in [2], in assay [3], in assay [4], in assay [5] and in [6] was over 100 µM throughout. Further, the TGI in assay [7], in assay [8] and in assay [9] was over 100 µM each time.
On to `CCc1cccc(NC(=O)c2cc(/C=C/c3ccccc3)[nH]c(=S)n2)c1`, for which the TGI in [1], in assay [2], in [5], in assay [6], in [7] and in [8] was over 100 µM throughout. In [9], the TGI is over 100 µM.
